According to patent US9045563B2, “CXC chemokine receptor 4 (CXCR4) antagonistic polypeptide” (priority 2007, dated 2015):
Ends that are not written are not given here.

Key:
[1] = test system: dual tropic (CXCR4 and CCR5 using) variant 92ht593.1; experiment: Infection of TZM-bl cells by dual tropic HIV-1, GalScreen; assay type: cell-based
Method: 5000 TZM-bl cells were seeded in 100 μl of DMEM (10% FCS, 100 U/ml of penicillin G and 100 μg/ml of streptomycin sulfate). ALB408-423 was dissolved in PBS (10 mg/ml). One day later, 20 μl serial dilutions of ALB408-423 in PBS were added to cells and cells were subsequently infected with 0.5 ng of p24 antigen HIV-1 in a total volume of 200 μl. HIV-1 molecular clones differing in coreceptor tropism were used and generated as described (Papkalla et al., J. Virol. 76: 8455-9, 2002).
FIG. 3: Chemically synthesized ALB408-423 specifically blocks X4 tropic HIV-1 infection. TZM-bl cells containing indicated dilutions of peptide were infected with HIV-1 variants differing in their coreceptor tropism. 3 days later Gal Screen assay was used to measure infection rates. […] B) Infection rates in the presence of 500 μg/ml ALB408-423 showing that the peptide specifically blocks X4 but not R5 tropic HIV-1 infection. Data shown are mean values±standard deviation derived from triplicate infections relative to PBS containing cells (100% infection).
After 3 days, infection was detected using GalScreen assay (TROPIX) (example 1). […] In contrast, CCR5 tropic HIV-1 variants were not inhibited even in the presence of very high doses of ALB408-423 (500 μg/ml) (FIG. 3B). Due to the specific inhibition of the infection caused by X4-tropic HIV-1 variants, it is to be assumed that ALB408-423 interacts with the chemokine receptor CXCR4.
Virus stocks were first titrated on TZM-bl cells. Then TZM-bl cells containing 100 μM of peptides were infected with infectivity normalized amounts of X4, dualtropic (X4/R5) or R5 tropic HIV-1.
FIG. 10. ALB408-423 and truncated ALB derivatives specifically block X4 tropic HIV-1 infection. TZM-bl cells either containing PBS or 100 μM of indicated peptides were infected with normalized infectivities of X4, dualtropic or R5 tropic HIV-1 clones. Infection rates were measured 2 days post infection using the GalScreen assay. Shown are mean values (% of PBS treated control)±standard deviations derived from triplicate measurements.

[2] = test system: CCR5 tropic HIV-1 NL4-3 92th014, HIV-1-7312 and SIVmac239; experiment: Infection of TZM-bl cells by R5 tropic lentiviruses; assay type: cell-based, SIV
X4 tropic HIV-1 NL4-3 = experiment: X4 tropic HIV-1 infection and replication in PBMC, p24 antigen ELISA; assay type: cell-based; settings: 100 μM peptide, day 6 post infection
Method: To analyze the effect of ALB408-423 and derivatives thereof in relevant primary cells, peripheral blood mononuclear cells were isolated from Buffy coat derived from the DRK-Blutspendedienst Baden-Württemberg-Hessen using Ficoll density centrifugation. 1×10^6 PBMC per ml were stimulated with 1 μg/ml phytohemagglutinine (PHA, Oxoid, #3085280) and 10 ng/ml Interleukin 2 (IL-2, Strathmann, #9511192) for three days. Thereafter cells were pelleted and resuspended in IL-2 containing medium. 1.5×10^5 PBMC (250 μl) were seeded in 96 well dishes, peptides were added and cells were infected with […] p24 antigen of X4 tropic HIV-1 NL4-3. Supernatants containing progeny virus were taken at day 1, 3 and 6 post infection. Virus production was measured by p24 antigen ELISA (SAIC-Frederick, Inc [AIDS & Cancer virus program]). […] In the presence of 20 μM peptides virus replication was severely impaired.
FIG. 11. ALB408-423 and derivatives inhibit X4 tropic HIV-1 infection of peripheral blood mononuclear cells (PBMC). Cells were incubated with indicated concentrations of ALB408-423 or truncated variants and infected with X4 tropic HIV-1. Supernatants obtained after 6 days were analyzed by p24 ELISA. Shown are mean p24 antigen values (ng/ml) derived from triplicate infections±standard deviation.

CCR5 = target: T1, CCR5 (Homo sapiens, UniProt P51681); experiment: Ca2+ mobilization in HEK CCR5 cells (indo-1); assay type: cell-based; settings: 50 μM peptide
T1 construct: expressed in transfected cells; host or cells: HEK293
Method: Ca^2+ responses were recorded.
FIG. 17. CXCR4 antagonistic activities of ALB derivatives. […] CXCR4 or CCR5 expressing HEK293 cells were treated with CXCR4 agonist CXCL12 (10 nM) or CCR5 agonist CCL5 (20 nM), respectively, in the absence (no ALB) or presence of indicated ALB derivatives (50 μM). Calcium responses were recorded as described. Data shown are mean values±standard deviation derived from duplicates relative to peak calcium responses after treatment with agonists only (100%). […] CXCR4 expressing HEK293 cells were treated with Texas Red labeled CXCL12 (CXCL12-Tr) in the presence or absence of ALB peptides. Real-time fluorescence monitoring of ligand-receptor interactions was carried out as described. Shown are bound CXCL12-Tr levels in the presence of ALB peptides relative to CXCL12-Tr only treated cells (100% bound). Values were derived from a duplicate experiment.

CXCR1 = target: T2, CXCR1 (Homo sapiens, UniProt P25024); experiment: Ca2+ mobilization in HEK EGFP-CXCR1 cells (indo-1); settings: 50 μM peptide
T2 sequence (P25024 1-350): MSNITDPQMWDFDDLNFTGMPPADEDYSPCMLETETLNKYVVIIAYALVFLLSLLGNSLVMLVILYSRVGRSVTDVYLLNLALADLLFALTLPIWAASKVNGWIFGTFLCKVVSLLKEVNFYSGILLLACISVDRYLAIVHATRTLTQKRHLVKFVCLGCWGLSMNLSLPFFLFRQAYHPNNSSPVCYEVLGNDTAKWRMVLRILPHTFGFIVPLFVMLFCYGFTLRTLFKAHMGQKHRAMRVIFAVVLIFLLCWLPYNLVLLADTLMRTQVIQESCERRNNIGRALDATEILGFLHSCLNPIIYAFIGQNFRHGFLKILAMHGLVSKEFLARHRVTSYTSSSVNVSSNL
Method: Intracellular Ca^2+ release measurement was carried out as described (Palanche et al., 2001, JBC 276:34853-34861; Vollmer et al., 1999, JBC 274:37915-37922) using indo-1 acetoxymethyl ester as the calcium probe. Cellular responses were recorded at 37° C. in stirred 1 mL cuvette with excitation set at 355 nm and emission set at 405 nm and 475 nm using a spectrofluorimeter. The human chemokines CCL5 and CXCL8 were purchased from Becton Dickinson Biosciences (San Jose, Calif.).
Intracellular Ca^2+ responses were measured using a spectrofluorimeter.
Values shown are mean calcium peak responses from duplicate experiments relative to chemokine only treated cells (100%).
Ca^2+ responses were recorded. […] In order to gain insight into compound selectivity, we next characterized the effect of the peptide on calcium responses of various chemokine/receptor pairs.

T1 sequence (P51681 whole entry): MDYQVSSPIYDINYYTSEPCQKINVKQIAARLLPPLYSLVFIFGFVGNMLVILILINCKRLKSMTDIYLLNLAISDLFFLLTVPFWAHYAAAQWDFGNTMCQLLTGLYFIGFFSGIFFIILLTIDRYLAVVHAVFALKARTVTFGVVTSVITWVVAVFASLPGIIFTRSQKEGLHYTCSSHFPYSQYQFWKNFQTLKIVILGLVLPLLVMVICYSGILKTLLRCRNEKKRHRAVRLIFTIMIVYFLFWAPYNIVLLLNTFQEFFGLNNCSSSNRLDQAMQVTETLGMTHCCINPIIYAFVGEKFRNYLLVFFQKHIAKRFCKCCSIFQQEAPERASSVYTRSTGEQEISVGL

Sequence: LVRYTKKVPQVSTPTL [ALB408-423, LVRYTKKVPQVSTPTL]
- inhibition of dualtropic HIV-1 clone 92ht593.1 ([1]; 100 μM peptide): only moderately
- inhibition of dual tropic variant 92ht593.1 ([1]; serial dilutions, compared with X4 tropic variants): blocked less efficiently
- effect on R5 tropic lentiviral infection [2]: no effect
- p24 antigen in supernatants (X4 tropic HIV-1 NL4-3): No p24 antigen could be detected
- effect on CCL5-evoked calcium responses (CCR5; HEK CCR5 cells): no effect
- agonism: calcium response induced by the peptide alone, CCR5 (CCR5; no chemokine): does not induce any calcium response
- effect on CXCL8-evoked calcium responses (CXCR1; HEK EGFP-CXCR1 cells): no effect
- agonism: calcium response induced by the peptide alone, CXCR1 (CXCR1; no chemokine): does not induce any calcium response
